Patent US20250127905A1, “GLUTARIMIDE COMPOUND AND USE THEREOF” (MEDSHINE DISCOVERY INC., priority 2021, published 2025)
Counter-ions that a name gives are not always drawn.

Key:
[1] = Pharmacokinetic evaluation in mice, experimental operation B (C57BL/6N); assay type: in vivo; settings: C57BL/6N mice
Source text: (§1) In this study, CD-1 or C57BL/6N male mice were selected as test animals, and LC/MS/MS method was used to quantify plasma concentrations of the test compound intravenously injected or intragastrically administered to mice at different time points, so as to evaluate the pharmacokinetic profile of the test drug in mice.
CD-1 mice (male, 20 to 35 g, 7 to 10 weeks old, Beijing Vital River) or C57BL/6N mice (male, 20 to 30 g, 7 to 10 weeks old, Beijing Vital River)
A clarified solution or suspension of the test compound was injected into C57BL/6N mice (overnight fasting) via the tail vein (vehicle: 5% DMSO/10% Solutol/85% H2O), or intragastrically administered into C57BL/6N mice (overnight fasting). For intravenous injection, […] of blood was collected via the cheek puncture at 0 h (pre-administration) and 0.083 h, 0.25 h, 0.5 h, 1 h, 2 h, 4 h, 6 h, 8 h, and 24 h after administration, and placed in an anticoagulant tube added with heparin sodium. The mixture was thoroughly vortexed and mixed, and centrifuged at 6000 g for 3 minutes at 2 to 8° C. For oral administration, blood was collected via the cheek puncture at 0 h (pre-administration) and 0.083 h, 0.25 h, 1 h, 2 h, 4 h, 6 h, 8 h, and 24 h after administration, and placed in an anticoagulant tube added with heparin sodium. The mixture was thoroughly vortexed and mixed, and centrifuged at 6000 g for 3 minutes at 2 to 8° C. Plasma concentrations were determined by LC-MS/MS method, and relevant pharmacokinetic parameters were calculated using Phoenix WinNonlin 8.2.0 pharmacokinetic software with non-compartmental model linear-log trapezoidal method.

[2] = Pharmacokinetic evaluation in Beagles; assay type: in vivo
Experimental: as §1, with “study,” for “study, CD-1 or C57BL/6N”, “Beagles” for “mice”, “Beagles.” for “mice.”
• Beagles (male, 9 to 11 kg, Jiangsu Yadong Institute of Experimental Animals Co., Ltd.).
A clarified solution or suspension of the test compound was injected into Beagles (feeding) via the tail vein (vehicle: 5% DMSO/10% Solutol/85% H2O), or intragastrically administered into Beagles (feeding). For intravenous injection, 1 mL of blood was collected from the forelimb vein at 0 h (pre-administration) and 0.083 h, 0.25 h, 0.5 h, 1 h, 2 h, 4 h, 6 h, 8 h, and 24 h after administration, and anticoagulated with EDTA-2K. The mixture was thoroughly vortexed and mixed, and centrifuged at 6000 g for 3 minutes at 2 to 8° C. For oral administration, 1 mL of blood was collected from the forelimb vein at 0 h (pre-administration) and 0.083 h, 0.25 h, 0.5 h, 1 h, 2 h, 4 h, 6 h, 8 h, and 24 h after administration, and anticoagulated with EDTA-2K. The mixture was thoroughly vortexed and mixed, and centrifuged at 6000 g for 3 minutes at 2 to 8° C. Plasma concentrations were determined by LC-MS/MS method, and relevant pharmacokinetic parameters were calculated using Phoenix WinNonlin 8.2.0 pharmacokinetic software with non-compartmental model linear-log trapezoidal method.

[3] = Intragastric administration 10 mg/kg
[4] = Intragastric administration (3 mg/kg)

## O=C1CCC(c2noc3c(NC(=O)CN4CCN(C[C@H]5CC[C@H](n6cc(NC(=O)c7cnn8ccc(N9C[C@H]%10C[C@@H]9CO%10)nc78)c(C(F)F)n6)CC5)CC4)cccc23)C(=O)N1 (stereo partly shown) [Hydrochloride of WX015]
[1]; [3]
  Area under the drug-time curve (0-inf): 2.51 µM·h
  Peak concentration: 0.4 µM
  Time to peak concentration: 1.33 h
[1]; Intravenous injection 2 mg/kg
  Area under the drug-time curve (0-inf): 1.45 µM·h
[1]; male, mouse, plasma, IV 2 mg/kg, PO 10 mg/kg, read-out: Bioavailability F
  bioavailability: 34.6%
[1]; male, mouse, plasma, Intravenous injection 2 mg/kg
  clearance: 27.6 mL/min/kg
[1]; male, mouse, plasma, Intravenous injection 2 mg/kg, read-out: Apparent volume of distribution
  Vd: 4.82 L/kg
[1]; male, mouse, plasma, Intravenous injection 2 mg/kg, read-out: Elimination half-life (converted)
  half-life: 4.25 h
[2]; [4]
  Area under the drug-time curve (0-inf): 1.13 µM·h
  Peak concentration: 0.12 µM
  Time to peak concentration: 4.67 h
[2]; Intravenous injection (0.5 mg/kg)
  Area under the drug-time curve (0-inf): 0.27 µM·h
[2]; male, beagle, dog, plasma, Intravenous injection (0.5 mg/kg)
  clearance: 37.5 mL/min/kg
[2]; male, beagle, dog, plasma, Intravenous injection (0.5 mg/kg), read-out: Apparent volume of distribution
  Vd: 8.44 L/kg
[2]; male, beagle, dog, plasma, Intravenous injection (0.5 mg/kg), read-out: Elimination half-life (converted)
  half-life: 2.93 h
[2]; male, beagle, dog, plasma, oral, IV 0.5 mg/kg, intragastric 3 mg/kg, read-out: Bioavailability F
  bioavailability: 70.3%
